Values joined by “and” are separate entries in the source; they are usually repeats but may differ in a detail not shown here. Equal values may be shown once.
Tested on: BRCA2-NULL cells
Test: Clonogenic assay (number of colonies counted)
Format: cell-based
Conditions: three replicates
Excerpt: Supplement 41467_2024_46593_MOESM7_ESM.xlsx, sheet "Supplem 1 b" | column: BRCA2-NULL

With CN(C(=O)Oc1ccc(C(F)(F)F)cc1C(F)(F)F)c1ccc(F)cc1 [MC160385] the “number of olonies counted” value (MC160385 2.5 μM) was 67 and 60 and 64, the “number of olonies counted” value (MC160385 5 μM) was 56 and 64 and 62 and the “number of olonies counted” value (MC160385 10 μM) was 57 and 62 and 60. For the same molecule, the “number of olonies counted” value (MC160385 20 μM) was 59 and 56 and 58.
